PMC8508526 (Cancers, 2021)
Positions of bridges follow the written chain, without caps; N, C: chain ends. No end group written: not given here.

Assays:
[1] = tested on: A2780 human ovarian carcinoma cells; details: A2780 model, 10 mg/kg i.p. thrice a week for 2 weeks
Procedure: (§1) Suspensions of A2780 or SK-OV-3 human ovarian carcinoma cells were s.c. inoculated (5 × 10^6 cells in 200 µL per animal) into the left flank of BALB/c athymic nude mice. Tumor measurements (length, L; width, W) were performed twice a week, using a digital caliper, and total tumor volume was calculated according to V = 0.5 × L × W^2. For randomization, mice were allocated to groups (n = 13–16 in each) based on similar mean and distribution of tumor volume on day 13. […] Body weight (BW) was monitored every 2 to 3 days, while clinical signs and behavior pattern were daily checked until study termination. Loss of 15% BW or tumor volume exceeding 1 cm^3 were considered an indication for euthanasia, as well as severe tumor necrosis, as it was sometimes associated with loss of body fluid and/or infection.

[2] = tested on: SK-OV-3 human ovarian carcinoma cells; details: SK-OV-3 model, 10 mg/kg i.p. thrice a week for 7 weeks
Procedure: as §1

platelets = assay: Washed platelets flow cytometry analysis of activation (CD62P); assay type: cell-based, mouse; details: washed platelets pooled from 4 treated ID8 tumor-bearing mice per group; resting and 3.33 U/mL thrombin; CD62P exposure
Procedure: Washed platelets were freshly prepared as described elsewhere from a pool of 4 mouse blood samples by treatment group (ID8 allograft i.p. model). […] To promote activation, platelets were incubated with 3.33 U.mL^−1 thrombin (#D8537, Sigma-Aldrich) for 5 min, at room temperature. Platelets were probed with both a (FITC)-conjugated monoclonal anti-CD41 antibody (clone MWReg30; #553848, BD Pharmingen) and a (PE)-conjugated monoclonal anti-CD62P antibody (clone Wug.E9; #M130-2, Emfret Analytics) for 10 min, at room temperature, in the dark. IgG1-PE (clone R3-34; #P190_2, Emfret Analytics) and IgG1-FITC (clone R3-34; #553924, BD Pharmingen) were employed as isotype controls. Platelet isolation was performed by gating in forward and side scatter, as well as relying on CD41 positivity, while CD62P (P-selectin) membrane exposure reflects platelet activation.
Figure S2. […] 8 weeks old female and
(a) Photographs of spleen isolated on
Whitney U test statistical analyses (* p < 0.05).
mice having received chronic TAX2 or combination therapy. Upon sacrifice, blood was collected from
samples by treatment group.
investigated by flow cytometry. Platelet population was isolated based on anti‐CD41 positivity,
Activation was analyzed on […]

[3] = 0.25 to 20 mg/mL in MilliQ water, 0.9% NaCl or 0.9% NaCl with 15 mM Tris; from lyophilized powder; A205, path length 0.05 cm, compared to powder weighing
Procedure: Absorbance values at 205 nm were measured on a NanoVue Plus^TM spectrophotometer (GE Healthcare, Chicago, IL, USA) using a quartz cuvette with a 0.05 cm path length.

[4] = freshly collected EDTA plasma from Sprague Dawley rats, 500 µL, spiked at 50 ng/mL, 2 h at 4 °C or room temperature, sampled every 30 min, HPLC-MS/MS, n = 2 per condition (method b35: 1 µM, 37 °C, human plasma)
[5] = target: T1, recombinant mouse thrombospondin-1 with a C-terminal 6His tag (mouse, UniProt P35441 19-1170); assay: SPR; Biacore T200; rmTSP-1 captured by its C-terminal 6His tag on anti-histidine antibody amine-coupled to a CM5 chip (2931 RU); peptides injected for 120 s at 30 uL/min, 25 °C; running buffer 10 mM HEPES, 0.15 M NaCl, 0.05% surfactant P20, 5 mM CaCl2, pH 7.4; single injections at 1 mM; single-cycle kinetics at 15.625-250 uM; contact-time experiment (30-600 s) at 500 uM TAX2; two-state reaction model, apparent KD; details: both partners purified
T1 construct: thrombospondin-1 (TSP-1), mouse, recombinant; also called rmTSP-1; TSP-1; source: bought: R&D Systems (#7859-TH); not shown: 6His, C-terminal, kept
T1 sequence (P35441 19-1170): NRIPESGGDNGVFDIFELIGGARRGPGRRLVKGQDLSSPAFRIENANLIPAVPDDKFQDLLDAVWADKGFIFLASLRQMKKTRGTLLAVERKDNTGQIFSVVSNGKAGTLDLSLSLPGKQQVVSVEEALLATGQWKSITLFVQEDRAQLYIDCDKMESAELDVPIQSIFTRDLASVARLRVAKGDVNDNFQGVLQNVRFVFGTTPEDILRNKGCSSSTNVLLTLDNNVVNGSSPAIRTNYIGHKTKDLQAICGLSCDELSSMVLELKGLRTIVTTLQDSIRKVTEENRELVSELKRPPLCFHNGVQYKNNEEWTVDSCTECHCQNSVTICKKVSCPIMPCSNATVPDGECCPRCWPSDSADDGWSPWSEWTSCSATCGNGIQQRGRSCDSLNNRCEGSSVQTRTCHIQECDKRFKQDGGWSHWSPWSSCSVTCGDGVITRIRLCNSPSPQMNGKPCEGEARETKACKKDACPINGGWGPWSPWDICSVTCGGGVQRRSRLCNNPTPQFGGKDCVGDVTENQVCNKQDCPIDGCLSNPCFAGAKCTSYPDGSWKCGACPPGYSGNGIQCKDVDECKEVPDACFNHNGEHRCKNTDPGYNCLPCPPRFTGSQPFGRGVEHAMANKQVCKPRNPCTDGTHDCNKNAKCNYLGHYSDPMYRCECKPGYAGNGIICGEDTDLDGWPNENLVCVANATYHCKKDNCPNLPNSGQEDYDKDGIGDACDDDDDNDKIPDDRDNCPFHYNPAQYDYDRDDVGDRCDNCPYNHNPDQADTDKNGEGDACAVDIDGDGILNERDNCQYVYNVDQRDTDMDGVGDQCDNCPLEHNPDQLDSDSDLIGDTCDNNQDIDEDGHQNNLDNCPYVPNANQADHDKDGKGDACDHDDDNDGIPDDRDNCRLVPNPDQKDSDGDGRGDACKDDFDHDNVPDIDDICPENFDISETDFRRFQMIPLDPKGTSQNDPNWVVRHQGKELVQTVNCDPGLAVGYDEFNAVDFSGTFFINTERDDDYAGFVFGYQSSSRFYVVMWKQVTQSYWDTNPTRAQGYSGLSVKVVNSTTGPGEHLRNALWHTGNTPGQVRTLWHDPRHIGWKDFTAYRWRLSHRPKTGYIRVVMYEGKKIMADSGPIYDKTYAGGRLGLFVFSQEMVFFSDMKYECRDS

CC(C)C[C@@H]1NC(=O)[C@H](CC(C)C)NC(=O)[C@H](CCC(N)=O)NC(=O)[C@H](CO)NC(=O)[C@H](C(C)C)NC(=O)[C@H](CCC(=O)O)NC(=O)[C@@H](N)CSSC[C@@H](C(=O)O)NC(=O)[C@H](C)NC(=O)[C@H](CC(=O)O)NC(=O)CNC(=O)[C@H](CCCCN)NC1=O [TAX2]
safety (body weight, clinical signs) [1]: appeared to be safe | safety (body weight, clinical signs) [2]: appeared to be safe | impact on platelet ability to activate (platelets): Neither TAX2 monotherapy nor combined to anti-PD-1 mAb had any impact | solubility in aqueous solvents [3]: completely soluble | stability in plasma (remaining TAX2, % of concentration at T0) [4]: remains stable in freshly collected plasma up to 2 hours

B1: TAX2 cyclic peptide (peptide)
peptide: CEVSQLLKGDAC
modifications: disulfide 1-12 (inferred); also: acetate salt
notes: disulfide linked 12 amino-acid cyclic peptide stretch of CD47; The two end residues are replaced by cysteines to close the ring; also called TAX2 peptide; TAX2 drug candidate; source: synthetic peptide (solid-phase synthesis, Fmoc chemistry; Genecust), purity >98%
binding result [5]: binds
